Test results from US5792831A, “Analogues of magainin peptides containing D-amino acids” (priority 1994, dated 1998).
Square brackets hold non-standard residues; d marks the D form. Ends that are not written are not given here.

What was measured:
Format in all cases: cell-based
[1] = test system: WM-239-A (metastatic melanoma); test: Melanoma growth reduction, 3H-thymidine incorporation (Example 4); settings: 2% tumor medium
Description: (§1) Melanoma cell lines WM-239-A (metastatic melanoma), WM278 (primary melanoma), WM793 (primary melanoma) and WM1158 (metastatic melanoma) were seeded in 24-well plates at a concentration of 7.5×10^4 cells/ml containing 2% tumor medium.
(§2) Peptides (SEQ ID NO:6) and D-(SEQ ID NO:6), in which each amino acid residue is a D-amino residue or a glycine residue, were frozen at -20° C. in […] aliquots at a concentration of 25 mg/ml. Each peptide was then dissolved in sterile distilled water at a dilution of 1:1,000 or 1:5,000 to provide peptide concentrations of 25 μg/ml or 5 μg/ml, respectively. The peptides at the 25 μg/ml or 5 μg/ml concentrations were then added to the plates containing the melanoma cells. The amount of ^3 H-thymidine incorporation for each well was taken on days 1, 3, and 7.

[2] = test system: WM1158 (metastatic melanoma); test: as above; settings: 2% tumor medium
Description: as §1, §2

WM793 (primary melanoma) = test: as above; settings: 2% tumor medium
Description: as §1, §2

WM278 (primary melanoma) = test: as above; settings: 2% tumor medium
Description: as §1, §2

melanoma cell line WM852 [3] = test: Melanoma growth reduction (Example 5); settings: dose 25 μg/ml
Description: as §1, §2
(§3) Peptides (SEQ ID NO:10) and D-(SEQ ID NO:10), in which each amino acid is a D-amino acid residue, are tested for % growth reduction of melanoma cell lines WM852 (grown in 2% tumor media or PF media), WM983A (grown in 2% tumor media or PF media), WM793 (grown in 2% tumor media), and WM1985 (grown in PF media) according to the procedure of Example 4, except that only a concentration of 25 μg/ml was employed for (SEQ ID NO:10), and concentrations of 1.0, 2.5, 5.0, 10.0, and 25.0 μg/ml were employed for D-(SEQ ID NO:10).

[4] = test system: melanoma cell line WM983A; test: Melanoma growth reduction (Example 5); settings: dose 25 μg/ml
Description: as §1, §2, §3

melanoma cell line WM793 = test: Melanoma growth reduction (Example 5); settings: dose 25 μg/ml, 2% tumor media
Description: as §1, §2, §3

[5] = test system: melanoma cell line WM1985; test: Melanoma growth reduction (Example 5); settings: dose 25 μg/ml, PF media
Description: as §1, §2, §3

[6] = test system: melanoma cell line WM983B; test: 3H-thymidine radioactive counts, melanoma cells (Example 6); settings: 2% tumor media
[7] = test system: melanoma cell line WM1791A; test: as above; settings: 2% tumor media
melanoma cell line WM973 = test: as above; settings: 2% tumor media
melanoma cell line WM8 = test: as above; settings: 2% tumor media
melanoma cell line WM35 = test: as above; settings: 2% tumor media
melanoma cell line WM39 = test: as above; settings: 2% tumor media
melanoma cell line WM115 = test: as above; settings: 2% tumor media
melanoma cell line WM164 = test: as above; settings: 2% tumor media
[8] = test system: melanoma cell line WM1366; test: as above; settings: 2% tumor media
[9] = test system: melanoma cell line SkMe123; test: as above; settings: 2% tumor media
[10] = test system: melanoma cell line WM239A; test: as above; settings: 2% tumor media
[11] = test system: melanoma cell line WM1158; test: as above; settings: 2% tumor media
[12] = test system: melanoma cell line WM983A; test: as above; settings: 2% tumor media
[13] = test system: melanoma cell line WM902B; test: as above; settings: 2% tumor media
melanoma cell line WM852 [14] = test: as above; settings: 2% tumor media

## (SEQ ID NO:6): peptide of SEQ ID NO:6, comparator not marked D; possibly the same as (SEQ ID NO:6)-NH2 (GIGKFLKSAKKFGKAFVKILNS; not fully specified) [reference compound]
[1]; dose 5 μg/ml
  % Growth Reduction (7 days) WM239-A: 0%
[1]; dose 25 μg/ml
  % Growth Reduction (7 days) WM239-A: 95.8%
[2]; dose 5 μg/ml
  % Growth Reduction (7 days) WM1158: 0%
[2]; dose 25 μg/ml
  % Growth Reduction (7 days) WM1158: 98.5%
WM793 (primary melanoma); dose 5 μg/ml
  % Growth Reduction (7 days) WM793: 11.6%
WM793 (primary melanoma); dose 25 μg/ml
  % Growth Reduction (7 days) WM793: 98.0%
WM278 (primary melanoma); dose 5 μg/ml
  % Growth Reduction (7 days) WM-278: 0%
WM278 (primary melanoma); dose 25 μg/ml
  % Growth Reduction (7 days) WM-278: 96.0%

## (SEQ ID NO:10): peptide of SEQ ID NO:10, comparator not marked D; possibly the same as (SEQ ID NO:10)-NH2 (KKLLKKLKKLLKKL; not fully specified) [reference compound]
Melanoma cell line WM852 [3]; 2% tumor media
  % Growth Reduction (7 days) WM852-2%: 0%
Melanoma cell line WM852 [3]; PF media
  % Growth Reduction (7 days) WM852-PF: 54.0%
[4]; 2% tumor media
  % Growth Reduction (7 days) WM-983A-2%: 0%
[4]; PF media
  % Growth Reduction (7 days) WM983A-PF: 60.5%
Melanoma cell line WM793
  % Growth Reduction (7 days) WM793-2%: 8.3%
[5]
  % Growth Reduction (7 days) WM1985-PF: 43.0%

## D-(SEQ ID NO:6): each amino acid residue is a D-amino residue or a glycine residue; possibly the same as D-(SEQ ID NO:6)-NH2 (G[dI]G[dK][dF][dL][dK][dS][dA][dK][dK][dF]G[dK][dA][dF][dV][dK][dI][dL][dN][dS]; not fully specified)
[6]; dose 1 μg/ml
  Radioactive Counts WM983B: 225000
[6]; dose 5 μg/ml
  Radioactive Counts WM983B: 135
[6]; dose 25 μg/ml
  Radioactive Counts WM983B: 115
[7]; dose 1 μg/ml
  Radioactive Counts WM1791A: 5655
[7]; dose 5 μg/ml
  Radioactive Counts WM1791A: 1065
[7]; dose 25 μg/ml
  Radioactive Counts WM1791A: 456
Melanoma cell line WM973; dose 1 μg/ml
  Radioactive Counts WM973: 81675
Melanoma cell line WM973; dose 5 μg/ml
  Radioactive Counts WM973: 7284
Melanoma cell line WM973; dose 25 μg/ml
  Radioactive Counts WM973: 770
Melanoma cell line WM8; dose 1 μg/ml
  Radioactive Counts WM8: 19226
Melanoma cell line WM8; dose 5 μg/ml
  Radioactive Counts WM8: 248
Melanoma cell line WM8; dose 25 μg/ml
  Radioactive Counts WM8: 99
[1]; dose 5 μg/ml
  % Growth Reduction (7 days) WM239-A: 82.0%
[1]; dose 25 μg/ml
  % Growth Reduction (7 days) WM239-A: 96.3%
[2]; dose 5 μg/ml
  % Growth Reduction (7 days) WM1158: 98.0%
[2]; dose 25 μg/ml
  % Growth Reduction (7 days) WM1158: 98.8%
WM793 (primary melanoma); dose 5 μg/ml
  % Growth Reduction (7 days) WM793: 95.6%
WM793 (primary melanoma); dose 25 μg/ml
  % Growth Reduction (7 days) WM793: 98.4%
WM278 (primary melanoma); dose 5 μg/ml
  % Growth Reduction (7 days) WM-278: 93.1%
WM278 (primary melanoma); dose 25 μg/ml
  % Growth Reduction (7 days) WM-278: 96.1%
Melanoma cell line WM35; dose 1 μg/ml
  Radioactive Counts WM35: 47241
Melanoma cell line WM35; dose 5 μg/ml
  Radioactive Counts WM35: 3187
Melanoma cell line WM35; dose 25 μg/ml
  Radioactive Counts WM35: 360
Melanoma cell line WM39; dose 1 μg/ml
  Radioactive Counts WM39: 27635
Melanoma cell line WM39; dose 5 μg/ml
  Radioactive Counts WM39: 1308
Melanoma cell line WM39; dose 25 μg/ml
  Radioactive Counts WM39: 273
Melanoma cell line WM115; dose 1 μg/ml
  Radioactive Counts WM115: 222000
Melanoma cell line WM115; dose 5 μg/ml
  Radioactive Counts WM115: 373
Melanoma cell line WM115; dose 25 μg/ml
  Radioactive Counts WM115: 263
Melanoma cell line WM164; dose 1 μg/ml
  Radioactive Counts WM164: 158000
Melanoma cell line WM164; dose 5 μg/ml
  Radioactive Counts WM164: 4143
Melanoma cell line WM164; dose 25 μg/ml
  Radioactive Counts WM164: 331
[8]; dose 1 μg/ml
  Radioactive Counts WM1366: 288000
[8]; dose 5 μg/ml
  Radioactive Counts WM1366: 1910
[8]; dose 25 μg/ml
  Radioactive Counts WM1366: 1692
[9]; dose 1 μg/ml
  Radioactive Counts SkMe123: 114846
[9]; dose 5 μg/ml
  Radioactive Counts SkMe123: 2028
[9]; dose 25 μg/ml
  Radioactive Counts SkMe123: 429
[10]; dose 1 μg/ml
  Radioactive Counts WM239A: 38053
[10]; dose 5 μg/ml
  Radioactive Counts WM239A: 221
[10]; dose 25 μg/ml
  Radioactive Counts WM239A: 459
[11]; dose 1 μg/ml
  Radioactive Counts WM1158: 131000
[11]; dose 5 μg/ml
  Radioactive Counts WM1158: 884
[11]; dose 25 μg/ml
  Radioactive Counts WM1158: 2108
[12]; dose 1 μg/ml
  Radioactive Counts WM983A: 335000
[12]; dose 5 μg/ml
  Radioactive Counts WM983A: 5598
[12]; dose 25 μg/ml
  Radioactive Counts WM983A: 313
[13]; dose 1 μg/ml
  Radioactive Counts WM902B: 49299
[13]; dose 5 μg/ml
  Radioactive Counts WM902B: 150
[13]; dose 25 μg/ml
  Radioactive Counts WM902B: 75
Melanoma cell line WM852 [14]; dose 1 μg/ml
  Radioactive Counts WM852: 169000
Melanoma cell line WM852 [14]; dose 5 μg/ml
  Radioactive Counts WM852: 2699
Melanoma cell line WM852 [14]; dose 25 μg/ml
  Radioactive Counts WM852: 554
